{
  "source": "patent US20260150841A1",
  "about": "“PYRIDINE COMPOUNDS FOR COMBATTING DIHYDROOROTATE-DEHYDROGENASE INHIBITOR-RESISTANT PHYTOPATHOGENIC FUNGI” (priority 2022, published 2026)",
  "type_in_all_cases": "cell-based",
  "key": {"[1]": {"test_system": "Botrytis cinerea mutant G111E", "experiment": "Activity against Botrytis cinerea in the microtiter test, mutant G111E", "details": "for IC50: Botrytis cinerea, MUTANTG111E, 168 h, read-out: Absolute IC50, G111E, Botrytis cinerea mutant G111E, turbidity at 620 nm after 7 days", "description": "(§1) The active substances were formulated separately as a stock solution in dimethyl sulfoxide (DMSO) at a concentration of 10 000 ppm.\n(§2) Spontaneous mutants were selected by plating out B. cinerea spores (in the range of 10^7-10^8) on DOB agar plates (3.4 g/l YNB (Becton Dickinson), 10 g/l Ammoniumsulfat, 40 g/l Glucose, 20 g/l Agar), amended with different lethal concentrations of active ingredient. After 7-14 days growing colonies were transferred to DOB agar plates, amended with the same lethal concentrations of active ingredient and then further propagated on Oatmeal agar medium (50 g/l Oatmeal agar (Sigma), 15 g/l Agar (Difco) for sensitivity testing.\n(§3) Fungal strains used: • a) Botrytis cinerea (sensitive, wild-type) • b) Various mutants of Botrytis cinerea\n(§4) The spores of Botrytis cinerea were harvested with a cotton swab from an Oatmeal agar plate (50 g/l Oatmealagar (Sigma, Art.O-3506), 15 g/l agar, (Difco) and this is dipped in 3 ml of double concentrated DOB-medium (3.4 g/l YNB (Becton Dickinson), 10 g/l Ammoniumsulfat, 40 g/l Glucose, adjusted to pH 7) and the spore suspension is adjusted to a spore density of 3.2×10^4 spores/ml. The compound solutions were diluted from stock solution in (dimethylsulfoxide) DMSO in several steps with sterile deionized water before use. High test concentrations were 50 mg/L (ppm) or 31 mg/L (ppm). Compound solutions were transferred into empty microplates and filled up with an equal amount of spore suspension.\n(§5) The antifungal activity was determined by measuring the turbidity of a culture in 96-well microplates in the presence of test compounds after 7 days incubation at 620 nm. A blank value for each concentration (growth media+compound, without spores) are subtracted from the spore suspension. The relative antifungal activity was calculated by comparing the effect of the test compounds with the effect of a DMSO control The results are shown in Table IV (for compounds of general formula I.A), VI (for compounds of general formula I.B), and VIII (for compounds of general formula I.C).\n(§6) A compound showing an IC50 (MUT) above the IC50 (WT) and showing an IC50 (MUT) to IC50 (WT) ratio being in a range above 100 is considered unsuitable (“I”) as DHODH inhibitor.\n(§7) The absolute IC50-values (concentration of test compound resulting in 50% inhibition of fungal growth) were calculated from the resulting dose-response for each compound and strain."}, "[2]": {"test_system": "Botrytis cinerea mutant G111V", "experiment": "Activity against Botrytis cinerea in the microtiter test, mutant G111V", "details": "for IC50: Botrytis cinerea, MUTANTG111V, 168 h, read-out: Absolute IC50, G111V, Botrytis cinerea mutant G111V, turbidity at 620 nm after 7 days", "description": "as §1, §2, §3, §4, §5, §6, §7"}, "[3]": {"test_system": "Botrytis cinerea mutant V195F", "experiment": "Activity against Botrytis cinerea in the microtiter test, mutant V195F", "details": "for IC50: Botrytis cinerea, MUTANTV195F, 168 h, read-out: Absolute IC50, V195F, Botrytis cinerea mutant V195F, turbidity at 620 nm after 7 days", "description": "as §1, §2, §3, §4, §5, §6, §7"}, "[4]": {"test_system": "Botrytis cinerea mutant Y208H", "experiment": "Activity against Botrytis cinerea in the microtiter test, mutant Y208H", "description": "as §1, §2, §3, §4, §5, §6, §7"}, "[5]": {"test_system": "Botrytis cinerea (sensitive, wild-type)", "experiment": "Activity against Botrytis cinerea in the microtiter test, wild type", "details": "168 h, turbidity at 620 nm after 7 days, read-out: Absolute IC50, wild type", "procedure": "as §1, §3, §4, §5, §7"}, "[6]": {"test_system": "Botrytis cinerea mutant H108P", "experiment": "Activity against Botrytis cinerea in the microtiter test, mutant H108P", "details": "Botrytis cinerea, MUTANTH108P, 168 h, read-out: Absolute IC50, H108P, Botrytis cinerea mutant H108P; turbidity at 620 nm after 7 days", "description": "as §1, §2, §3, §4, §5, §6, §7"}},
  "note": "Where two headings read alike, the source gives them in different places.",
  "data": [
    {"smiles": "Cc1cc(C2=NC3(CCC3)Oc3c2cccc3C(C)(C)C)cnc1C", "note": "[Ex-14]", "values": [
      {"measurement": "Relative antifungal activity expressed as IC50, G111E", "setting": "[1]", "result": "AA AA AA AA AA"},
      {"measurement": "Relative antifungal activity expressed as IC50, G111V", "setting": "[2]", "result": "AA AA AA AA AA"},
      {"measurement": "Relative antifungal activity expressed as IC50, V195F", "setting": "[3]", "result": "AA AA AA AA AA"},
      {"measurement": "Relative antifungal activity expressed as IC50, Y208H", "setting": "[4]; {}", "result": "AA AA AA AA AA"}
    ]},
    {"smiles": "Cc1cc(C2=NC(C)(C)Oc3c2cccc3C(C)(C)C)cnc1C", "note": "[Ex-15]", "values": [
      {"measurement": "Relative antifungal activity expressed as IC50, G111V", "setting": "[2]", "result": "AA AA AA"},
      {"measurement": "Relative antifungal activity expressed as IC50, V195F", "setting": "[3]", "result": "AA AA AA"}
    ]},
    {"smiles": "Cc1cc(C2=NC(C(C)(C)C)Oc3ccccc32)cnc1C", "note": "(stereo not drawn) [Ex-18]", "values": [
      {"measurement": "Relative antifungal activity expressed as IC50, G111E", "setting": "[1]", "result": "AA AA AA AA"},
      {"measurement": "Relative antifungal activity expressed as IC50, G111V", "setting": "[2]", "result": "AA AA AA AA"},
      {"measurement": "Relative antifungal activity expressed as IC50, V195F", "setting": "[3]", "result": "AA AA AA AA"}
    ]},
    {"smiles": "Cc1cc(C2=NC3(CCCC3)Oc3ccccc32)cnc1C(F)F", "note": "[Ex-24]", "values": [
      {"measurement": "IC50", "setting": "[5]", "result": 0.35, "unit": "µg/mL"},
      {"measurement": "IC50", "setting": "[6]", "result": 0.98, "unit": "µg/mL"},
      {"measurement": "IC50", "setting": "[1]", "result": 15.3, "unit": "µg/mL"},
      {"measurement": "IC50", "setting": "[2]", "result": 1.31, "unit": "µg/mL"},
      {"measurement": "IC50", "setting": "[3]", "result": 0.69, "unit": "µg/mL"}
    ]},
    {"smiles": "Cc1cc(C2=NC3(CCC3)Oc3ccccc32)cnc1C(F)F", "note": "[Ex-25, 4-[6-(difluoromethyl)-5-methyl-3-pyridyl]spiro[1,3-benzoxazine-2,1′-cyclobutane]]", "values": [
      {"measurement": "IC50", "setting": "[5]", "result": 0.05, "unit": "µg/mL"},
      {"measurement": "IC50", "setting": "[6]", "result": 0.02, "unit": "µg/mL"},
      {"measurement": "IC50", "setting": "[2]", "result": 0.03, "unit": "µg/mL"},
      {"measurement": "IC50", "setting": "[3]", "result": 0.08, "unit": "µg/mL"},
      {"measurement": "IC50", "setting": "[4]; Botrytis cinerea, MUTANTY208H, 168 h, read-out: Absolute IC50, Y208H, Botrytis cinerea mutant Y208H, turbidity at 620 nm after 7 days", "result": 0.28, "unit": "µg/mL"}
    ]},
    {"smiles": "Cc1cc(C2=NC3(COC3)Oc3ccccc32)cnc1C", "note": "[Ex-26]", "values": [
      {"measurement": "Relative antifungal activity expressed as IC50, G111E", "setting": "[1]", "result": "AA AA AA AA"},
      {"measurement": "Relative antifungal activity expressed as IC50, G111V", "setting": "[2]", "result": "AA AA AA AA"},
      {"measurement": "Relative antifungal activity expressed as IC50, V195F", "setting": "[3]", "result": "AA AA AA AA"}
    ]},
    {"smiles": "COc1ccc2c(c1)OC1(CCC1)N=C2c1cnc(C(F)F)c(C)c1", "note": "[Ex-37]", "values": [
      {"measurement": "IC50", "setting": "[5]", "result": 0.03, "unit": "µg/mL"},
      {"measurement": "IC50", "setting": "[6]", "result": 0.06, "unit": "µg/mL"},
      {"measurement": "IC50", "setting": "[1]", "result": 0.54, "unit": "µg/mL"},
      {"measurement": "IC50", "setting": "[2]", "result": 0.09, "unit": "µg/mL"},
      {"measurement": "IC50", "setting": "[3]", "result": 0.11, "unit": "µg/mL"}
    ]},
    {"smiles": "Cc1cc(C2=NC(C)(C)Nc3ccccc32)cnc1C", "note": "[compound 39]", "values": [
      {"measurement": "Relative antifungal activity expressed as IC50, G111E", "setting": "[1]", "result": "AA AA AA AA"},
      {"measurement": "Relative antifungal activity expressed as IC50, G111V", "setting": "[2]", "result": "AA AA AA AA"},
      {"measurement": "Relative antifungal activity expressed as IC50, V195F", "setting": "[3]", "result": "AA AA AA AA"}
    ]},
    {"smiles": "Cc1ccc(S(=O)(=O)N2c3ccccc3C(c3cnc(C)c(C)c3)=NC2(C)C)cc1", "note": "[compound 42]", "values": [
      {"measurement": "Relative antifungal activity expressed as IC50, G111E", "setting": "[1]", "result": "AA AA AA AA"},
      {"measurement": "Relative antifungal activity expressed as IC50, G111V", "setting": "[2]", "result": "AA AA AA AA"},
      {"measurement": "Relative antifungal activity expressed as IC50, V195F", "setting": "[3]", "result": "AA AA AA AA"}
    ]},
    {"smiles": "Cc1cc(C2=NC(C)(C)COc3ccccc32)cnc1C", "note": "[compound 51]", "values": [
      {"measurement": "Relative antifungal activity expressed as IC50, G111V", "setting": "[2]", "result": "AA AA AA"},
      {"measurement": "Relative antifungal activity expressed as IC50, V195F", "setting": "[3]", "result": "AA AA AA"}
    ]},
    {"smiles": "CC(C)(C)C1(C)N=C(c2cnc3c(F)cccc3c2)c2ccccc2O1", "note": "(stereo not drawn) [drawing 117, reference compound]", "values": [
      {"measurement": "IC50", "setting": "[5]", "result": 0.07, "unit": "µg/mL"},
      {"measurement": "IC50", "setting": "[3]", "result": "> 31", "unit": "µg/mL"}
    ]},
    {"smiles": "CC1(c2ccccc2)N=C(c2cnc3c(F)cccc3c2)c2cccc(F)c2O1", "note": "(stereo not drawn) [drawing 127, reference compound]", "values": [
      {"measurement": "IC50", "setting": "[5]; Botrytis cinerea", "result": 0.04, "unit": "µg/mL"},
      {"measurement": "IC50", "setting": "[3]", "result": 15.5, "unit": "µg/mL"}
    ]},
    {"smiles": "COc1ccc2c(c1)OC(C)(C)N=C2c1cnc2c(F)cccc2c1", "note": "[drawing 129, reference compound]", "values": [
      {"measurement": "IC50", "setting": "[5]; Botrytis cinerea", "result": 0.01, "unit": "µg/mL"},
      {"measurement": "IC50", "setting": "[3]", "result": 5.28, "unit": "µg/mL"}
    ]},
    {"smiles": "CCN1c2c(F)cccc2C(c2cnc3c(F)cccc3c2)=NC1(C)C", "note": "[drawing 141, reference compound]", "values": [
      {"measurement": "IC50", "setting": "[5]", "result": 0.02, "unit": "µg/mL"},
      {"measurement": "IC50", "setting": "[3]", "result": "> 31", "unit": "µg/mL"}
    ]},
    {"smiles": "CC1(C)N=C(c2cnc3c(F)cccc3c2)c2ccccc2OC1(C)C", "note": "[drawing 163, reference compound]", "values": [
      {"measurement": "IC50", "setting": "[5]; Botrytis cinerea", "result": 0.001, "unit": "µg/mL"},
      {"measurement": "IC50", "setting": "[3]", "result": 2.84, "unit": "µg/mL"}
    ]},
    {"smiles": "Fc1cccc2cc(C3=NC4(CCCC4)Oc4ccccc43)cnc12", "note": "[reference compound]", "values": [
      {"measurement": "IC50", "setting": "[5]; Botrytis cinerea", "result": 0.05, "unit": "µg/mL"},
      {"measurement": "IC50", "setting": "[3]", "result": 10.9, "unit": "µg/mL"}
    ]},
    {"smiles": "CC1(C)N=C(c2cnc3c(F)cccc3c2)c2cccc(F)c2N1", "note": "[reference compound]", "values": [
      {"measurement": "IC50", "setting": "[5]; Botrytis cinerea", "result": 0.005, "unit": "µg/mL"},
      {"measurement": "IC50", "setting": "[3]", "result": 4.42, "unit": "µg/mL"}
    ]},
    {"smiles": "CC1(C)CN=C(c2cnc3ccccc3c2)c2ccccc2O1", "note": "[reference compound]", "values": [
      {"measurement": "IC50", "setting": "[5]; Botrytis cinerea", "result": 0.001, "unit": "µg/mL"},
      {"measurement": "IC50", "setting": "[3]", "result": 19.5, "unit": "µg/mL"}
    ]}
  ]
}
